From ChEMBL document CHEMBL4610101, “Antimalarial Eudesmane Sesquiterpenoids from Dobinea delavayi” (2020)
The source made the active and inactive calls. No cut-off for these calls is given here.

Key:
Plasmodium yoelii [1] = experiment: (§1) Antimalarial activity against Plasmodium yoelii BY265RFP infected in Kunming mouse assessed as inhibition of parasitemia at 30 mg/kg/day, ig administered for 4 days starting from 3 hrs post infection and measured at 4 days post infection by Wright-Giemsa staining based microscopic assay relative to control; assay type: functional; details: po
Plasmodium yoelii [2] = experiment: as §1, with “15” for “30”; assay type: functional; details: po
Plasmodium yoelii [3] = experiment: Antimicrobial activity against Plasmodium yoelii BY265RFP infected in Kunming mouse assessed as relief from hepatomegaly at 15 to 30 mg/kg/day, ig administered for 4 days starting from 3 hrs post infection and measured at 4 days post infection; assay type: functional, organism-based
Plasmodium yoelii [4] = experiment: Antimicrobial activity against Plasmodium yoelii BY265RFP infected in Kunming mouse assessed as recovery of erythrocyte at 15 to 30 mg/kg/day, ig administered for 4 days starting from 3 hrs post infection and measured at 4 days post infection; assay type: functional, organism-based
Plasmodium yoelii [5] = experiment: Antimicrobial activity against Plasmodium yoelii BY265RFP infected in Kunming mouse assessed as recovery of abdominal temperature at 15 to 30 mg/kg/day, ig administered for 4 days starting from 3 hrs post infection and measured at 5 days post infection; assay type: functional, organism-based
Plasmodium yoelii [6] = experiment: Antimicrobial activity against Plasmodium yoelii BY265RFP infected in Kunming mouse assessed as increase in hemoglobin level at 15 to 30 mg/kg/day, ig administered for 4 days starting from 3 hrs post infection and measured at 5 days post infection; assay type: functional, organism-based
Plasmodium yoelii [7] = experiment: Disruption of mitochondrial membrane potential in Plasmodium yoelii BY265RFP infected in mouse erythrocytes assessed as red/green fluorescence ratio at 0.03 uM incubated for 12 hrs by JC1 staining based laser-scanning confocal microscopic analysis (reference value: 1.55 +/- 0.08); assay type: functional
Plasmodium yoelii [8] = experiment: Disruption of mitochondrial membrane potential in Plasmodium yoelii BY265RFP infected in mouse erythrocytes assessed as red/green fluorescence ratio at 0.3 uM incubated for 12 hrs by JC1 staining based laser-scanning confocal microscopic analysis (reference value: 1.55 +/- 0.08); assay type: functional
Plasmodium yoelii [9] = experiment: Disruption of mitochondrial membrane potential in Plasmodium yoelii BY265RFP infected in mouse erythrocytes assessed as red/green fluorescence ratio at 3 uM incubated for 12 hrs by JC1 staining based laser-scanning confocal microscopic analysis (reference value: 1.55 +/- 0.08); assay type: functional
Plasmodium yoelii [10] = experiment: Induction of intracellular ROS production in Plasmodium yoelii BY265RFP infected in mouse erythrocytes at 0.03 to 3 uM after 12 hrs by DCFH-DA staining based laser-scanning confocal microscopic analysis; assay type: functional, organism-based
Hemozoin = experiment: Inhibition of beta-hematin formation incubated for 5 hrs
Mus musculus [11] = experiment: (§2) Immunomodulatory activity in Kunming mouse infected with Plasmodium yoelii BY265RFP assessed as proportion of splenic CD4+CD25+ Tregs within CD4+ cells at 10 mg/kg/day, ig administered for 4 days starting from 3 hrs post infection and measured at 4 days post infection by FACSCalibur flow cytometry (reference value: 11.2 +/- 0.5%); assay type: functional
Mus musculus [12] = experiment: as §2, with “30” for “10”; assay type: functional
Mus musculus [13] = experiment: as §2, with “15” for “10”; assay type: functional
Mus musculus [14] = experiment: Immunomodulatory activity in Kunming mouse infected with Plasmodium yoelii BY265RFP assessed as decrease in IL-10 at 30 mg/kg/day, ig administered for 4 days starting from 3 hrs post infection and measured at 4 days post infection by FACSCalibur flow cytometry; assay type: functional, organism-based
Mus musculus [15] = experiment: Immunomodulatory activity in Kunming mouse infected with Plasmodium yoelii BY265RFP assessed as increase in IL-12 at 30 mg/kg/day, ig administered for 4 days starting from 3 hrs post infection and measured at 4 days post infection by FACSCalibur flow cytometry; assay type: functional, organism-based
Mus musculus [16] = experiment: Immunomodulatory activity in Kunming mouse infected with Plasmodium yoelii BY265RFP assessed as increase in IFN-gamma at 30 mg/kg/day, ig administered for 4 days starting from 3 hrs post infection and measured at 4 days post infection by FACSCalibur flow cytometry; assay type: functional, organism-based
Mus musculus [17] = experiment: Immunomodulatory activity in Kunming mouse infected with Plasmodium yoelii BY265RFP assessed as decrease in IgG at 30 mg/kg/day, ig administered for 4 days starting from 3 hrs post infection and measured at 4 days post infection by FACSCalibur flow cytometry; assay type: functional, organism-based
Plasmodium yoelii [18] = experiment: as §1, with “10” for “30”; assay type: functional; details: po
Plasmodium yoelii [19] = experiment: as §1, with “50” for “30”; assay type: functional; details: po

C/C=C(/C)C(=O)O[C@H]1CC[C@]2(C)CC(=O)[C@@H](C(C)C(=O)O)C[C@H]2[C@]1(C)O (stereo partly drawn) showed an inhibition in vivo at 30 mg/kg/day (Plasmodium yoelii [1]) of 3.9%.
In the case of C/C=C(/C)C(=O)O[C@H]1CC[C@]2(C)C[C@]3(O)OC(=O)C(C)=C3C[C@H]2[C@]1(C)O, the inhibition in vivo at 30 mg/kg/day (Plasmodium yoelii [1]) is reported as -1.9%.
For C/C=C(/C)C(=O)O[C@H]1CC[C@]2(C)C[C@@H](C(C)=O)C[C@H]2[C@]1(C)OC(C)=O, the inhibition in vivo at 30 mg/kg/day (Plasmodium yoelii [1]) was 59.1%, the inhibition in vivo at 15 mg/kg/day (Plasmodium yoelii [2]) was 33.8% and the Activity (Plasmodium yoelii [3]) was “Active”. For the same compound, the Activity (Plasmodium yoelii [4]) was “Active”, the Activity (Plasmodium yoelii [5]) was “Active” and the Activity (Plasmodium yoelii [6]) was “Active”. The Ratio (Plasmodium yoelii [7]) was 1.51, the Ratio (Plasmodium yoelii [8]) was 1.35 and the Ratio (Plasmodium yoelii [9]) was 1.22. For the same compound, the Activity (Plasmodium yoelii [10]) was “Active”, the inhibition (Hemozoin) was “inactive” and the Activity (Mus musculus [11]) was 6.7%. For the same compound, the Activity (Mus musculus [12]) was 7.6%, the Activity (Mus musculus [13]) was 8.6% and the Activity (Mus musculus [14]) was “Active”. The Activity (Mus musculus [15]) was “Active”, the Activity (Mus musculus [16]) was “Active” and the Activity (Mus musculus [17]) was “Active”.
For CCN(CC)CCCC(C)Nc1ccnc2cc(Cl)ccc12 (stereo not drawn) [CHLOROQUINE PHOSPHATE], the inhibition in vivo at 10 mg/kg/day (Plasmodium yoelii [18]) was 97.9%.
In the case of C/C=C(/C)C(=O)O[C@H]1CC[C@]2(C)CC(=O)C[C@H]2[C@]1(C)OC(C)=O, the inhibition in vivo at 30 mg/kg/day (Plasmodium yoelii [1]) is reported as 18.5%.
C/C=C(/C)C(=O)O[C@H]1CC[C@]2(C)C[C@@H]3OC(=O)C(C)=C3C[C@H]2[C@]1(C)OC(C)=O was tested, and the inhibition in vivo at 30 mg/kg/day (Plasmodium yoelii [1]) was 15%.
For C/C=C(/C)C(=O)O[C@H]1CC[C@]2(C)C[C@]3(O)OC(=O)C(C)=C3C[C@H]2[C@]1(C)OC(C)=O, the inhibition in vivo at 30 mg/kg/day (Plasmodium yoelii [1]) was 14.5%.
In the case of C[C@@H]1CC[C@H]2[C@@H](C)C(=O)O[C@@H]3O[C@@]4(C)CC[C@@H]1[C@]32OO4 [ARTEMISININ], the inhibition in vivo at 50 mg/kg/day (Plasmodium yoelii [19]) is reported as 54.4%, the Ratio (Plasmodium yoelii [7]) is reported as 1.43 and the Ratio (Plasmodium yoelii [8]) is reported as 1.33. For the same compound, the Ratio (Plasmodium yoelii [9]) was 1.18.
